Source: US20110124626A1, “BENZAZEPINE DERIVATIVES AND THEIR USE AS HISTAMINE H3 ANTAGONISTS” (TAKEDA PHARMACEUTICAL COMPANY LIMITED, priority 2008, published 2011)

Biological target: T1, human H3 receptor (Homo sapiens, UniProt Q9Y5N1)
T1 construct: expressed in transfected cells
Experiment: In vitro H3 binding assay (3H-N-α-methyl-histamine competition binding)
Conditions: membranes of CHO-K1 cells expressing human H3 receptor; 2 nM 3H-NαMH; read-out: hH3 binding IC50
Procedure: The ability of compounds to bind to the H3 receptor was determined by measuring the reduction in tritiated N-α-methyl-histamine (^3H—NαMH) binding in a competition binding assay. Changes in the levels of bound radio-label were monitored by scintillation counting with a Trilux Microbeta (Perkin Elmer).
Membranes were prepared from CHO-K1 cells stably expressing human H3 receptor; routinely grown as monolayers in Ham's F12 medium (Invitrogen) supplemented with 10% Foetal Clone 111 (Hyclone), 500 μg/ml G418 (Invitrogen), 5 μg/ml blasticidine S (Invivogen) and […] Gentamicin (Sigma) in 5% CO2 at 37° C. Cells were grown to 80-95% confluency, rinsed once with 1×PBS (Invitrogen) and detached by incubating with 1×PBS containing 0.02% EDTA (Sigma) for 10 minutes at room temperature. Cells were collected by centrifugation at 900×g, 4° C. for 10 minutes. Cells were rinsed once with 1×PBS and re-suspended in ice cold homogenisation buffer (50 mM Tris-HCl (pH 7.4), 2.5 mM EDTA, 5 mM MgCl2, 200 mM Sucrose) at 1×10^7 cells/ml and kept on ice. Cells were homogenised on ice and debris removed by centrifugation at 500×g, 4° C. for 5 minutes. The resulting supernatant was centrifuged at 75,600×g, 4° C. for 60 minutes. Membranes were suspended in homogenisation buffer, protein concentration was determined (BCA Protein Assay kit (Pierce)), diluted to 2.2 mg/ml, dispensed into 1 ml aliquots and stored at −80° C.
Membranes were thawed on ice, sonicated with 4 cycles of 20 pulses (50% amplitude, 0.5 pulse) (UP200S Hielscher) on ice, diluted in assay buffer (50 mM Tris-HCl (pH7.4), 5 mM MgCl2) to 62.5 μg/ml. Compound was serially diluted in DMSO before being diluted 1:10 with assay buffer. 5 μg of membrane in 80 μl of assay buffer was added per well of a 96 well polystyrene plate (Corning). […] of compound was added per well. The assay was initiated by the addition of 10 μl of 20 nM ^3H—NαMH per well and incubated for one hour at room temperature with shaking. Total binding was determined in the presence of 1% DMSO and non-specific binding was determined by the inclusion of 1 μM R-α-methyl-histamine (RαMH). Incubations were then filtered through filtermat A (Perkin Elmer) and washed three times with assay buffer. Filtermats were dried at 42° C. for two hours, scintillant added and the level of bound radioactivity determined.
IC50 values for compounds were determined from seven point log scale dose-response studies and represent the concentration of compound required to inhibit 50% of the specific binding of 2 nM ^3H—NαMH (difference between total and non-specific binding). Curves were generated using the average of duplicate wells for each data point and analyzed using nonlinear regression of sigmoidal dose response (variable slope).

T1 sequence (Q9Y5N1 whole entry): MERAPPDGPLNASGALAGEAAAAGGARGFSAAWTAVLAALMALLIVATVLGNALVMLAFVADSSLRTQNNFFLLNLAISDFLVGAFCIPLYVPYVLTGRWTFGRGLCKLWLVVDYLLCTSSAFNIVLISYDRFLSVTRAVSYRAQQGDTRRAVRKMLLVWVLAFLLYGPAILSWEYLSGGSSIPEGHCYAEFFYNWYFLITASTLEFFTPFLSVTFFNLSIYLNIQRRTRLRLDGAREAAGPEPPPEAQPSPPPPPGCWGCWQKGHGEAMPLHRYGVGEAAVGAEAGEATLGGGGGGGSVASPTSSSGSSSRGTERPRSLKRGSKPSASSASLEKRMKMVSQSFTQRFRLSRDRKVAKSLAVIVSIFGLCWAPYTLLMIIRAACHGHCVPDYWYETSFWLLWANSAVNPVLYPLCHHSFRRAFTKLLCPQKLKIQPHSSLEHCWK

| SMILES | IC50 [µM] |
| --- | --- |
| O=C(NCC1CCN(C2CCC2)CC1)c1ccc2c(c1)CCN(C1CCC1)CC2 [Example 11, 3-Cyclobutyl-N-((1-cyclobutylpiperidin-4-yl)methyl)-2,3,4,5-tetrahydro-1H-benzo[d]azepine-7-carboxamide] | 0.03 |
| O=C(NCc1ccccc1)c1ccc2c(c1)CCN(C1CCCC1)CC2 [Example 19, N-Benzyl-3-cyclopentyl-2,3,4,5-tetrahydro-1H-benzo[d]azepine-7-carboxamide] | 0.02 |
| O=C(NCc1ccncc1)c1ccc2c(c1)CCN(C1CCCC1)CC2 [Example 21, 3-Cyclopentyl-N-(pyridin-4-ylmethyl)-2,3,4,5-tetrahydro-1H-benzo[d]azepine-7-carboxamide] | 0.013 |
| CCNC(=O)c1ccc2c(c1)CCN(C1CCC1)CC2 [Example 25, 3-Cyclobutyl-N-ethyl-2,3,4,5-tetrahydro-1H-benzo[d]azepine-7-carboxamide] | 0.037 |
| CC(C)NC(=O)c1ccc2c(c1)CCN(C1CCC1)CC2 [Example 26, 3-Cyclobutyl-N-isopropyl-2,3,4,5-tetrahydro-1H-benzo[d]azepine-7-carboxamide] | 0.036 |
| O=C(NC1CCC1)c1ccc2c(c1)CCN(C1CCC1)CC2 [Example 27, N,3-Dicyclobutyl-2,3,4,5-tetrahydro-1H-benzo[d]azepine-7-carboxamide] | 0.021 |
| O=C(NCC1CCCC1)c1ccc2c(c1)CCN(C1CCC1)CC2 [Example 30, 3-Cyclobutyl-N-(cyclopentylmethyl)-2,3,4,5-tetrahydro-1H-benzo[d]azepine-7-carboxamide] | 0.005 |
| O=C(NCCc1ccccc1)c1ccc2c(c1)CCN(C1CCC1)CC2 [Example 38, 3-Cyclobutyl-N-phenethyl-2,3,4,5-tetrahydro-1H-benzo[d]azepine-7-carboxamide] | 0.009 |
| O=C(NCc1ccccn1)c1ccc2c(c1)CCN(C1CCC1)CC2 [Example 45, 3-Cyclobutyl-N-(pyridin-2-ylmethyl)-2,3,4,5-tetrahydro-1H-benzo[d]azepine-7-carboxamide] | 0.013 |
| COc1ccc(CNC(=O)c2ccc3c(c2)CCN(C2CCC2)CC3)cc1 [Example 49, 3-Cyclobutyl-N-(4-methoxybenzyl)-2,3,4,5-tetrahydro-1H-benzo[d]azepine-7-carboxamide] | 0.034 |
| COC(=O)c1ccc(CNC(=O)c2ccc3c(c2)CCN(C2CCC2)CC3)cc1 [Example 50, Methyl 4-((3-cyclobutyl-2,3,4,5-tetrahydro-1H-benzo[d]azepine-7-carboxamido)methyl)benzoate] | 0.024 |
| O=C(NCc1ccccc1Br)c1ccc2c(c1)CCN(C1CCC1)CC2 [Example 54, N-(2-Bromobenzyl)-3-cyclobutyl-2,3,4,5-tetrahydro-1H-benzo[d]azepine-7-carboxamide] | 0.01 |
| O=C(NCc1ccccc1C(F)(F)F)c1ccc2c(c1)CCN(C1CCC1)CC2 [Example 57, 3-Cyclobutyl-N-(2-(trifluoromethyl)benzyl)-2,3,4,5-tetrahydro-1H-benzo[d]azepine-7-carboxamide] | 0.012 |
| O=C(NCc1ccccc1Cl)c1ccc2c(c1)CCN(C1CCC1)CC2 [Example 63, N-(2-Chlorobenzyl)-3-cyclobutyl-2,3,4,5-tetrahydro-1H-benzo[d]azepine-7-carboxamide] | 0.006 |
| O=C(NCc1cccc(Cl)c1)c1ccc2c(c1)CCN(C1CCC1)CC2 [Example 65, N-(3-Chlorobenzyl)-3-cyclobutyl-2,3,4,5-tetrahydro-1H-benzo[d]azepine-7-carboxamide] | 0.004 |
| O=C(NCc1ccc(Cl)cc1)c1ccc2c(c1)CCN(C1CCC1)CC2 [Example 67, N-(4-Chlorobenzyl)-3-cyclobutyl-2,3,4,5-tetrahydro-1H-benzo[d]azepine-7-carboxamide] | 0.011 |
| Cn1ccc2cc(CNC(=O)c3ccc4c(c3)CCN(C3CCC3)CC4)ccc21 [Example 75, 3-Cyclobutyl-N-((1-methyl-1H-indol-5-yl)methyl)-2,3,4,5-tetrahydro-1H-benzo[d]azepine-7-carboxamide] | 0.015 |

| SMILES | IC50 [µM] |
| --- | --- |
| O=C(NCc1cc(-c2cccs2)on1)c1ccc2c(c1)CCN(C1CCC1)CC2 [Example 84, 3-Cyclobutyl-N-((5-(thiophen-2-yl)isoxazol-3-yl)methyl)-2,3,4,5-tetrahydro-1H-benzo[d]azepine-7-carboxamide] | 0.01 |
| Cc1oc(-c2ccccc2)nc1CNC(=O)c1ccc2c(c1)CCN(C1CCC1)CC2 [Example 85, 3-Cyclobutyl-N-((5-methyl-2-phenyloxazol-4-yl)methyl)-2,3,4,5-tetrahydro-1H-benzo[d]azepine-7-carboxamide] | 0.014 |
| O=C(NCc1cccs1)c1ccc2c(c1)CCN(C1CCC1)CC2 [Example 87, 3-Cyclobutyl-N-(thiophen-2-ylmethyl)-2,3,4,5-tetrahydro-1H-benzo[d]azepine-7-carboxamide] | 0.004 |
| O=C(NCc1ccoc1)c1ccc2c(c1)CCN(C1CCC1)CC2 [Example 89, 3-Cyclobutyl-N-(furan-3-ylmethyl)-2,3,4,5-tetrahydro-1H-benzo[d]azepine-7-carboxamide] | 0.018 |
| Cc1occc1CNC(=O)c1ccc2c(c1)CCN(C1CCC1)CC2 [Example 90, 3-cyclobutyl-N-((2-methylfuran-3-yl)methyl)-2,3,4,5-tetrahydro-1H-benzo[d]azepine-7-carboxamide] | 0.01 |
| Cc1cc(CNC(=O)c2ccc3c(c2)CCN(C2CCC2)CC3)c(C)o1 [Example 91, 3-cyclobutyl-N-((2,5-dimethylfuran-3-yl)methyl)-2,3,4,5-tetrahydro-1H-benzo[d]azepine-7-carboxamide] | 0.006 |
| Cc1nc(CNC(=O)c2ccc3c(c2)CCN(C2CCC2)CC3)c(C)o1 [Example 93, 3-cyclobutyl-N-((2,5-dimethyloxazol-4-yl)methyl)-2,3,4,5-tetrahydro-1H-benzo[d]azepine-7-carboxamide] | 0.029 |
| CCn1cc(CNC(=O)c2ccc3c(c2)CCN(C2CCC2)CC3)cn1 [Example 95, 3-Cyclobutyl-N-((1-ethyl-1H-pyrazol-4-yl)methyl)-2,3,4,5-tetrahydro-1H-benzo[d]azepine-7-carboxamide] | 0.018 |
| Cc1nn(C)c(C)c1CNC(=O)c1ccc2c(c1)CCN(C1CCC1)CC2 [Example 96, 3-Cyclobutyl-N-((1,3,5-trimethyl-1H-pyrazol-4-yl)methyl)-2,3,4,5-tetrahydro-1H-benzo[d]azepine-7-carboxamide] | 0.018 |
| Cc1nn(C)cc1CNC(=O)c1ccc2c(c1)CCN(C1CCC1)CC2 [Example 98, 3-Cyclobutyl-N-((1,3-dimethyl-1H-pyrazol-4-yl)methyl)-2,3,4,5-tetrahydro-1H-benzo[d]azepine-7-carboxamide] | 0.015 |
| CCn1cc(CNC(=O)c2ccc3c(c2)CCN(C2CCC2)CC3)c(C)n1 [Example 99, 3-Cyclobutyl-N-((1-ethyl-3-methyl-1H-pyrazol-4-yl)methyl)-2,3,4,5-tetrahydro-1H-benzo[d]azepine-7-carboxamide] | 0.018 |
| Cn1ncc(Cl)c1CNC(=O)c1ccc2c(c1)CCN(C1CCC1)CC2 [Example 102, N-((4-chloro-1-methyl-1H-pyrazol-5-yl)methyl)-3-cyclobutyl-2,3,4,5-tetrahydro-1H-benzo[d]azepine-7-carboxamide] | 0.018 |
| CCn1cc(Cl)c(CNC(=O)c2ccc3c(c2)CCN(C2CCC2)CC3)n1 [Example 106, N-((4-chloro-1-ethyl-1H-pyrazol-3-yl)methyl)-3-cyclobutyl-2,3,4,5-tetrahydro-1H-benzo[d]azepine-7-carboxamide] | 0.013 |
| Cn1nc(-c2cccs2)cc1CNC(=O)c1ccc2c(c1)CCN(C1CCC1)CC2 [Example 109, 3-Cyclobutyl-N-((1-methyl-3-(thiophen-2-yl)-1H-pyrazol-5-yl)methyl)-2,3,4,5-tetrahydro-1H-benzo[d]azepine-7-carboxamide] | 0.002 |
| Cc1nn(-c2ccccc2)c(C)c1CNC(=O)c1ccc2c(c1)CCN(C1CCC1)CC2 [Example 110, 3-Cyclobutyl-N-((3,5-dimethyl-1-phenyl-1H-pyrazol-4-yl)methyl)-2,3,4,5-tetrahydro-1H-benzo[d]azepine-7-carboxamide] | 0.017 |
| O=C(NCc1ncc[nH]1)c1ccc2c(c1)CCN(C1CCC1)CC2 [Example 113, N-((1H-Imidazol-2-yl)methyl)-3-cyclobutyl-2,3,4,5-tetrahydro-1H-benzo[d]azepine-7-carboxamide] | 0.013 |
